From BindingDB's records for patent US11111253 (University of Pittsburgh, 2021)

Target: T1, Signal transducer and activator of transcription 1-alpha/beta (Homo sapiens, UniProt P42224)
T1 sequence (P42224 whole entry): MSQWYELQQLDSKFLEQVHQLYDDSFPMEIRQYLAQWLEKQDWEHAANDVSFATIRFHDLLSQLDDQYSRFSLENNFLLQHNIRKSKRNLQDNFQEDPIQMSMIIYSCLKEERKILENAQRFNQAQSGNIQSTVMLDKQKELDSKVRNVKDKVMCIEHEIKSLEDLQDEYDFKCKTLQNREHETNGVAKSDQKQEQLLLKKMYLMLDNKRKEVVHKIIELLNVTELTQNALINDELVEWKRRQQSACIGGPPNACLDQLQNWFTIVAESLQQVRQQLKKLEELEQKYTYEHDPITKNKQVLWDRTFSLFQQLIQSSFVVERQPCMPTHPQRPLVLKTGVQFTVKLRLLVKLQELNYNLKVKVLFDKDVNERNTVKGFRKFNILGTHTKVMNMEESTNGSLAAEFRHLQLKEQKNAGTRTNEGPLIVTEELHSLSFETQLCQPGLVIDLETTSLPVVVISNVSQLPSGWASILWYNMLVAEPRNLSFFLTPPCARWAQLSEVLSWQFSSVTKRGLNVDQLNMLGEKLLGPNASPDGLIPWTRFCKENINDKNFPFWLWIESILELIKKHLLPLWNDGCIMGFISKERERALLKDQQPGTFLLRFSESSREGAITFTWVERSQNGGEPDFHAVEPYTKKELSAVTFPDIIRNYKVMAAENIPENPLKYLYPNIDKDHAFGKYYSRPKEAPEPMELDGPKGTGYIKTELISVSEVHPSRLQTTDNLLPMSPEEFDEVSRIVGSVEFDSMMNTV
Test: Bioassay
Method: Compound samples (in 3-5 mg quantities) were evaluated in a variety of assays. All compound submissions were fully characterized (1H, 13C, IR, FIRMS), satisfied purity criteria (≥95% LC/MC, ELS).

Row | Structure (SMILES) | IC50 [µM]
1 | COc1ccc(C2=Nn3c(nnc3-c3cc(-c4ccccc4)n[nH]3)SC2)cc1 [US11111253, Compound 8b] | > 50
2 | COc1ccc(C2=Nn3c(nnc3-c3cc(-c4ccccc4)n[nH]3)SC2CC(C)C)cc1 (stereo not drawn) [US11111253, Compound 28] | > 50
3 | CC(C)CC1Sc2nnc(-c3[nH]nc4c3CCC4)n2N=C1c1ccc(Cl)c(Cl)c1 (stereo not drawn) [US11111253, Compound 27] | > 50
